Experimental findings from ChEMBL document CHEMBL1132432, “Urea-PETT compounds as a new class of HIV-1 reverse transcriptase inhibitors. 3. Synthesis and further structure-activity relationship studies of PETT analogues” (J Med Chem, 1999) are described below.

Some results are limits rather than exact numbers.

The target in assay [1] is T1, Human immunodeficiency virus type 1 reverse transcriptase (Human immunodeficiency virus 1, UniProt Q72547). Put plainly: HIV-1 reverse transcriptase inhibitory activity against Wild Type Reverse transcriptase using (poly)rC600*(oligo)dGT as template primer.
Assay [2] addresses T1, Human immunodeficiency virus type 1 reverse transcriptase. In words: HIV-1 reverse transcriptase inhibitory activity against Ile 100 mutant using (poly)rC600*(oligo)dGT as template primer.
For assay [3] the target is unchanged. Put plainly: HIV-1 reverse transcriptase inhibitory activity against Asn103 mutant using (poly)rC600*(oligo)dGT as template primer.
Assay [4] shares this target. Put plainly: HIV-1 reverse transcriptase inhibitory activity against Cys181 mutant using (poly)rC600*(oligo)dGT as template primer.
The subject of another assay is MT4. In words: Inhibitory activity against HIV-1 Wild Type in MT-4 cell culture (human T-cell line with 50% human AB serum). It counts as functional. The following applies: read-out: ED50 (the source's name).
The target in assay [5] is Human immunodeficiency virus type 1 reverse transcriptase (Human immunodeficiency virus 1) (UniProt Q72547). The note with it: MT4.
Description: Inhibition of wild type HIV-1 in MT-4 cell culture (human T cell line)
The target is the same in assay [6]. The note with it: MT4. This is another data set of the same source.
Description: Inhibitory activity against HIV-1 Asn 103 mutant in MT-4 cells.
Assay [7] shares this target. The note with it: MT4. This is another data set of the same source.
Description: Inhibitory activity against HIV-1 Cys 181 mutant in MT-4 cells.
The target is the same in assay [8]. The following applies: MT4. The source holds these as a separate data set.
Description: Inhibitory activity against HIV-1 Ile 100 mutant in MT-4 cells.

Take `CCC(=O)c1ccc(F)c(C2CC2NC(=O)Nc2ccc(Br)cn2)c1O` (stereo in doubt; 17) [listing 1 of 2 here]: the half-maximal inhibitory concentration (IC50) in assay [1] amounted to 3.8 nM; in [2] it was 171 nM; in assay [3], 83 nM; in [4] it was 16 nM. For the same compound, in the assay on MT4 (Homo sapiens, MT4), the EC50 amounted to 58 nM.

On to `CC(=O)c1ccc(F)c(C2CC2NC(=O)Nc2ccc(Br)cn2)c1O` (stereo not drawn), for which the IC50 in [1] was 3.5 nM; in assay [2], 18 nM; in [3] it was 70 nM; in assay [4] it was 8 nM. Moreover, the ED50 in assay [5] amounted to 21 nM; in assay [6], 561 nM; in [7], 113 nM; in [8], 50 nM.

With `CCC(=O)c1ccc(F)c(C2CC2NC(=O)Nc2ccc(Br)cn2)c1O` (stereo in doubt; 17) [listing 2 of 2 here], the ED50 in assay [5] was 8 nM; in [6], 80 nM; in [7], 69 nM; in [8], 100 nM.

`CCOc1ccc(F)c(C2CC2NC(=O)Nc2ccc(Cl)cn2)c1F` (stereo not drawn): the IC50 came to 1.6 nM in assay [1], 81 nM in [2], 473 nM in assay [3] and 14 nM in [4]. Also, the ED50 in assay [5] turned out to be 31 nM; in assay [6] it was 544 nM; in [7], 163 nM; in [8], 816 nM.

`Cc1ccnc2c1NC(=O)c1cccnc1N2C1CC1` [NEVIRAPINE]: in the assay on MT4 (Homo sapiens, MT4), the EC50 is more than 5000 nM.

Consider `COc1ccc(C(C)=O)c(F)c1CCNC(=O)Nc1ccc(Cl)cn1`, for which the IC50 in [1] is 109 nM; in assay [2], 11200 nM; in assay [3], more than 2700 nM; in assay [4], 10100 nM. Also, the ED50 in assay [5] is 273 nM; in assay [6], 3280 nM; in assay [7] it was more than 20000 nM; in assay [8], more than 20000 nM.

Take `O=C1Nc2ccc(Cl)cc2[C@@](C#CC2CC2)(C(F)(F)F)O1` [EFAVIRENZ]: the EC50 with MT4 (Homo sapiens, MT4) is 50 nM.

In the case of `COc1ccc(OC)c(CCNC(=O)Nc2ccc(Cl)cn2)c1F`, the ED50 in [5] was 28 nM; in assay [6], 1130 nM; in [7], more than 5000 nM; in assay [8] it was 3800 nM. In addition, the results for the IC50 in assay [2], in assay [3] and in [4] were 140 nM, 224 nM and 140 nM, respectively.

Regarding `CCOc1ccc(Cl)c(C2CC2NC(=O)Nc2ccc(Cl)cn2)c1F` (stereo not drawn), the IC50 in [1] worked out at 1.3 nM; in assay [2], 52 nM; in assay [3], 237 nM; in [4], 21 nM. The ED50 is 9 nM in [5], 780 nM in assay [6], 104 nM in assay [7] and 139 nM in assay [8].

Consider `CCOc1ccc(F)c(C2CC2NC(=O)Nc2cc(Cl)cnn2)c1Cl` (stereo not drawn), for which the IC50 in assay [1] was 16 nM; in [2], 140 nM; in [3], more than 2600 nM; in [4], 260 nM. The ED50 in [5] is 78 nM; in assay [6] it was more than 5000 nM; in [7], 2300 nM; in assay [8] it was 4400 nM.

Regarding `CCOc1ccc(F)c(CCNC(=O)Nc2ccc(Br)cn2)c1Cl`, the ED50 in assay [5] was 70 nM; in assay [6] it was more than 5000 nM; in assay [7] it was more than 5000 nM; in [8], more than 10000 nM. Further, the half-inhibitory concentration (IC50) in assay [2] was 1680 nM; in [3], more than 2400 nM; in assay [4], 240 nM.

Turning to `CCC(=O)c1ccc(F)c(C2CC2NC(=O)Nc2ccc(C#N)cn2)c1O` (stereo not drawn), the IC50 in assay [1] worked out at 6.8 nM; in assay [2], 32 nM; in [3] it was 97 nM; in assay [4] it was 16 nM. Further, the ED50 was determined as 3 nM in assay [5], 137 nM in assay [6], 46 nM in assay [7] and 69 nM in [8].

Take `CN(C)c1ccc(F)c(CCNC(=O)Nc2ccc(Br)cn2)c1F`: the ED50 in assay [5] was 500 nM; in [6], more than 20000 nM; in [7], more than 20000 nM; in [8] it was more than 20000 nM. The IC50 was more than 2500 nM in [2], more than 2500 nM in assay [3] and 1500 nM in [4].

As to `O=C(Nc1ccc(Cl)cn1)NC1CC1c1c(F)ccc(O)c1Cl` (stereo not drawn), the half-maximal inhibitory concentration (IC50) in [1] is 135 nM; in assay [2], 4100 nM; in assay [3], more than 2700 nM; in [4], 4300 nM. Besides, the ED50 in [5] was 110 nM; in [6], more than 5000 nM; in assay [7], more than 5000 nM; in assay [8] it was more than 5000 nM.

Regarding `CCC(=O)c1ccc(F)c(C2CC2NC(=O)Nc2ccc(Cl)cn2)c1O` (stereo in doubt; 19) [listing 1 of 2 here], the ED50 in [5] is 9 nM; in assay [6], 200 nM; in [7], 100 nM; in assay [8] it was 100 nM.

As to `CCC(=O)c1ccc(F)c(C2CC2NC(=O)Nc2ccc(Cl)cn2)c1O` (stereo in doubt; 20) [listing 1 of 2 here], the ED50 worked out at 13 nM in [5], 470 nM in [6], 100 nM in [7] and 75 nM in [8].

As for `CCC(=O)c1ccc(F)c(C2CC2NC(=O)Nc2ccc(Br)cn2)c1O` (stereo in doubt; 18) [listing 1 of 2 here], the ED50 in assay [5] was found to be 12 nM; in assay [6], 358 nM; in assay [7], 95 nM; in assay [8], 53 nM.

Regarding `CCOc1ccc(F)c(C2CC2NC(=O)Nc2ccc(C#N)cn2)c1Cl` (stereo not drawn), the IC50 was found to be 4.3 nM in assay [1], 200 nM in assay [2], 183 nM in assay [3] and 130 nM in [4]. Also, the ED50 in assay [5] was 8 nM; in [6], more than 5000 nM; in assay [7], 270 nM; in assay [8], 234 nM.

Regarding `CCOc1ccc(Cl)c(C2CC2NC(=O)Nc2ccc(C#N)cn2)c1F` (stereo not drawn), the IC50 in assay [1] is 2.7 nM; in assay [2] it was 27 nM; in [3], 192 nM; in assay [4], 20 nM. The ED50 in assay [5] was found to be 4 nM; in assay [6] it was 400 nM; in [7] it was 200 nM; in assay [8], 53 nM.

For the compound `CC(=O)c1ccc(F)c(C2CC2NC(=O)Nc2ccc(C#N)cn2)c1O` (stereo not drawn), the IC50 in assay [1] came out at 5.3 nM; in [2], 13 nM; in assay [3], 98 nM; in [4] it was 16 nM. Besides, the ED50 in [5] was 8 nM; in assay [6] it was 104 nM; in assay [7], 230 nM; in [8], 40 nM.

`CCC(=O)c1ccc(F)c(C2CC2NC(=O)Nc2ccc(Br)cn2)c1O` (stereo in doubt; 18) [listing 2 of 2 here]: the concentration for half-maximal inhibition (IC50) in assay [1] turned out to be 4.8 nM; in assay [2], 14 nM; in [3], 41 nM; in assay [4], 10 nM. Besides, the EC50 in the assay with MT4 was 56 nM.

As to `COc1ccc2c(c1)N(C(=O)OC(C)C)C(CSC)C(S)=N2` (stereo not drawn), the IC50 in assay [1] turned out to be 8 nM; in assay [2], 9 nM; in [3], 56 nM; in [4], 9 nM. The ED50 turned out to be 9 nM in assay [5], 500 nM in [6], 73 nM in assay [7] and 72 nM in assay [8]. Also, the EC50 with MT4 (Homo sapiens, MT4) was determined as 320 nM.

As to `CCC(=O)c1ccc(F)c(C2CC2NC(=O)Nc2ccc(Cl)cn2)c1O` (stereo in doubt; 19) [listing 2 of 2 here], the IC50 worked out at 3.2 nM in assay [1], 115 nM in assay [2], 82 nM in assay [3] and 19 nM in assay [4]. In the assay on MT4 (Homo sapiens, MT4), the EC50 was found to be 51 nM.

In the case of `CCOc1ccc(Cl)c(C2CC2NC(=O)Nc2cc(Cl)cnn2)c1F` (stereo not drawn), the IC50 was 5.2 nM in assay [1], 1000 nM in assay [2], more than 2600 nM in assay [3] and 1000 nM in [4]. Besides, the ED50 in assay [5] was 18 nM; in assay [6], more than 5000 nM; in [7] it was more than 5000 nM; in assay [8], more than 5000 nM.

As for `CCC(=O)c1ccc(F)c(C2CC2NC(=O)Nc2ccc(Cl)cn2)c1O` (stereo in doubt; 20) [listing 2 of 2 here], the IC50 in assay [1] came out at 2.7 nM; in assay [2], 14 nM; in [3], 77 nM; in assay [4], 4 nM. Also, the EC50 with MT4 worked out at 80 nM.

Take `CC(C)Nc1cccnc1N1CCN(C(=O)c2cc3cc(NS(C)(=O)=O)ccc3[nH]2)CC1` [DELAVIRDINE]: in the assay on MT4 (Homo sapiens, MT4), the EC50 came out at 320 nM.

For `COc1c(C(C)=O)ccc(F)c1CCNC(=O)Nc1ccc(Cl)cn1`, the 50% inhibitory concentration (IC50) in assay [1] was 224 nM; in assay [2], 26200 nM; in assay [3] it was more than 2700 nM; in [4] it was 12700 nM. Also, the ED50 in assay [5] is 819 nM; in assay [6], more than 5000 nM; in assay [7], more than 5000 nM; in assay [8] it was more than 5000 nM.

Regarding `CCC(=O)c1ccc(F)c(C2CC2NC(=O)Nc2ccc(Cl)cn2)c1O` (stereo in doubt; 13) [listing 1 of 2 here], the half-maximal inhibitory concentration (IC50) in [1] came out at 9 nM; in assay [2], 76 nM; in assay [3] it was 57 nM; in assay [4], 51 nM.

Take `CCC(=O)c1ccc(F)c(C2CC2NC(=O)Nc2ccc(Cl)cn2)c1O` (stereo in doubt; 13) [listing 2 of 2 here]: the ED50 in [5] was 27 nM; in assay [6], 350 nM; in assay [7] it was 340 nM; in assay [8], 220 nM.

The term IC50 denotes the concentration at which inhibition is half-maximal. Low readings indicate inhibition by little substance, high ones a need for much substance.
